Reference: article PMC11570809, “Novel N-phenyl-2-(aniline) benzamide hydrochloride salt development for colon cancer therapy” (Frontiers in Pharmacology, 2024)
Where “and” joins values, the source holds several entries; their conditions need not be identical. Identical values can stand only once. Counter-ions that a name gives are not always drawn. Like-named read-outs stand apart in the source and are kept apart here.

How the values were obtained:
[1] = Thermodynamic solubility in water (HPLC); type: physicochemical; conditions: for Solubility, equivalent molar concentration: water
Method: The thermodynamic solubility of N53·HCl in water was determined by high-performance liquid chromatography (Waterage, Alliance HPLC E2695, United States). The HPLC mobile phases were water (0.1% formic acid) and methanol separated by gradient chromatography at 0.5 mL/min. The chromatographic conditions were followed. Mobile phase: methanol: H2O = 10:90; 15 min; wavelength: 254 nm; temperature: 25°C. N53 and N53·HCl were dissolved in methanol to form a gradient concentration standard solution (0.32, 1.6, 8, 40, 200 and 1,000 μg/mL). The standard solutions were scanned at 254 nm and the absorption area was recorded against the concentration curve. Saturated solutions of the compounds were prepared by magnetic stirring at 37°C for 4 h in deionized water in small volumes and the solid compounds were removed using Millipore 0.45 μm filters. The saturated solution was then scanned at 254 nm. The thermodynamic solubility in water was calculated from the absorption area and curve.

[2] = Oral pharmacokinetics study; type: in vivo, SD rats; conditions: for T1/2 / Tmax: n = 3
Method: Six 250–280 g male SD rats, which are 8-week-old, were randomly divided into 2 groups (n = 3). The dose selection is based on previously described ([Xiaoling Hu et al., 2022]). 100 mg/kg N53 and N53·HCl dissolved in normal saline containing 2.5% polyoxyethylene castor oil and 2.5% DMSO was administrated by oral medications. The first group was given 100 mg/kg of N53 by intragastric administration, and the second group was given 100 mg/kg of N53·HCl by intragastric administration. For intragastric administration, blood samples were collected from the orbits of the rats in heparin sodium tubes at 0, 5, 15, 30 min, 1, 2, 4, 6, 8, 12, and 24 h after dosing; The above blood samples were centrifuged (2,500 rpm, 6 min, 4°C) to plasma, and stored at −80°C to be analyzed by LC-MS/MS. Firstly, 5 times methanol was added to each serum sample and mixed well. After centrifugation at 1,600 rpm for 10 min at 4°C, the samples were filtered through a 0.22 μm filter for analysis. The HPLC analysis was carried out on an ODS-C18 column (4.6 mm × 50 mm, 3 μm). The HPLC mobile phases consisted of water (0.1% formic acid) (A) and 95% acetonitrile (including 0.1% formic acid) (B), separated by gradient chromatography at 0.4 mL/min. Chromatographic conditions: mobile phase: 0–0.5 min, acetonitrile: H2O = 10:90; 0.5–0.6 min acetonitrile: H2O = 100:0, 0.6–2.4 min, acetonitrile: H2O = 100:0, 2.4–2.5 min acetonitrile: H2O = 10:90; wavelength: 254 nm; column temperature: 25°C. The column eluate was directly introduced into ES-API. The MS/MS instrument was conducted using the electrospray ionization (ESI) source with a positive ion detection mode. The analytes (N53·HCl) and IS (Propranolol) were all detected by multiple reactions monitoring (MRM) scan mode of transitions from precursor ions to product ions at m/z 435.2→192.1 for N53·HCl (retention time: 1.54 min), m/z 260.0→116.0 for IS (retention time: 1.54 min). The optimized instrument parameters are as follows: declustering potentials (DP) at 51 V for N53·HCl, 78 V for IS; entrance potentials (EP) at 8V; collision energies (CE) at 34 V for N53·HCl, 25 V for IS; collision cell exit potentials (CXP) at 7 V; curtain gas (CUR) at a pressure of 10 psi; turbo spray voltage at 5,500 V. Data acquisition of LC-MS/MS was performed with AnalystTM 1.5 software package (Applied Biosystems, MA, United States). The pharmacokinetic parameters for N53 and N53·HCl were calculated by using the non-compartment method (statistical moment) in DAS 2.0 software (Pharmacokinetics Institute of China).

[3] = biological target: T1, Topo I (Bos taurus, UniProt F1MN93); test: Topo I-mediated DNA relaxation assay; type: biochemical; conditions: relaxation of supercoiled pBR322
T1 construct: purchased Takara Biotechnology, Dalian, China
T1 sequence (F1MN93 1-767): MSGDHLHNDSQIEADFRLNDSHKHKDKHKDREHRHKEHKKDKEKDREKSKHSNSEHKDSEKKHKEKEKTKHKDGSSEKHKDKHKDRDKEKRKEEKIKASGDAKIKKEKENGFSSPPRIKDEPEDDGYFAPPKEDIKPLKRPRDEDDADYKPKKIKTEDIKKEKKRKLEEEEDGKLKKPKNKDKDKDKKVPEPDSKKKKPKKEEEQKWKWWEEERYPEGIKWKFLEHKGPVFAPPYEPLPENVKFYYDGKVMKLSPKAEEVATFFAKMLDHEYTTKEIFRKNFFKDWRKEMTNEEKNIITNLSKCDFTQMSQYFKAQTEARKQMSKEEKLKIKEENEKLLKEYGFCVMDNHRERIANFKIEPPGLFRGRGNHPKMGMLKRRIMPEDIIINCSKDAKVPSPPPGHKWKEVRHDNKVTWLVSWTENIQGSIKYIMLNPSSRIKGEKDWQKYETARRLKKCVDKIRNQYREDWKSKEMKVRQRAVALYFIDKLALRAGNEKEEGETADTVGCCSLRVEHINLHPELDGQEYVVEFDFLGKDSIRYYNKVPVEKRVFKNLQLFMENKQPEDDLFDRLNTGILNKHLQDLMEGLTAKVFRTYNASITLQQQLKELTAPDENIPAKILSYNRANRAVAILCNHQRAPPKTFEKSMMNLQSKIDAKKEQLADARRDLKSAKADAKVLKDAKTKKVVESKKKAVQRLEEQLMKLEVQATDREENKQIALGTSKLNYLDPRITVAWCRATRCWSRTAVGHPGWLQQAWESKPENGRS
Method: In brief, 2 μL Topo I Assay Buffer, 2 μL 0.1% BSA solution, 1 μL 1 U/μL Topo I solution, 0.2 μL test compound solution, and 0.5 μL DNA solution (0.25 μg) were added orderly with the corresponding volume of ultrapure water to make the above system volume 20 μL (Takara Biotechnology, Dalian, China). The above system was incubated at 37°C, the incubation continued for 45 min, and then 10 μL of a mixture of equal phenol and chloroform organic solvent was added for extraction to terminate the reaction. The aqueous phase was separated by centrifugation, the corresponding volume of 6 × DNA loading buffer was added, and then 0.8% agarose gel and 1 × TAE electrophoresis solution were used for electrophoresis at 110 V for 1 h. After electrophoresis, the gel was placed in a 0.5 μg/mL of ethidium bromide (EB) solution for 30 min, then recorded and photographed at 302 nm wavelength.

[4] = 100 mg/kg p.o., n = 3, mean ± SD

Row | SMILES | Solubility, equivalent molar concentration [1] [µM] | Cmax (peak plasma concentration) ([2]; 100 mg/kg p.o.) | T1/2 ([2]; 100 mg/kg p.o.) | Tmax ([2]; 100 mg/kg p.o.) [h] | AUC0(-∞) [2, 4] [ng·h/mL] | CLz [2, 4] [mL/min/kg] | Cmax [2, 4] [µg/mL] | Vd/F ([2]; male, SD, rat, plasma, po, 100 mg/kg, 100 mg/kg p.o., n = 3, mean ± SD, read-out: Vz/F) [L/kg] | Inhibition rate (%) of Topo I (100 μM) [3] [%] | solubility at 4 h ([1]; deionized water, thermodynamic, 37°C, 4 h) [µg/mL] | Water solubility ([1]; thermodynamic, deionized water, 37°C, 4 h) [µg/mL] | Vz/F [2, 4] [L/kg] | Tmax ([2]; male, SD, rat, plasma, po, 100 mg/kg, 100 mg/kg p.o., read-out: Tmax) [h] | AUC0–∞ increase relative to N53 ([2]; oral) [fold] | Cmax increase relative to N53 ([2]; oral) [fold]
1 | Cc1c(Cl)cccc1Nc1ccccc1C(=O)Nc1ccc(N2CCN(C)CC2)cc1 [Compound N53, 2-((3-chloro-2-methylphenyl)amino)-N-(4-(4-methylp-iperazin-1-yl)phenyl)benzamide] | < 0.74 | 333.7 µg/mL and 333 µg/mL | 10.78 h and 10.8 ± 0.7 h | 6.0 ± 2.0 | 7200 ± 700 | 232 ± 21.7 | 330 ± 40 | 217 ± 33.3 | 11.7 | – | – | – | – | – | –
2 | Cc1c(Cl)cccc1Nc1ccccc1C(=O)Nc1ccc(N2CCN(C)CC2)cc1 [N53·HCl, 4-(4-(2-((3-chloro-2-methylphenyl)amino)ben-zamido)phenyl)-1-methylpiperazin-1-ium] | 1150 | 680.0 µg/mL | 22.3 ± 9.9 h | 6.7 ± 4.6 | 21200 ± 8000 | 85 ± 26.7 | 680 ± 180 | – | 55.1 | 540 | 540 | 149.7 ± 11.6 | 6.67 | 3 | 2
